Laboratory results reported in patent US11291666B2, “Uses” (INTRA-CELLULAR THERAPIES, INC., priority 2016, dated 2022).
Entries after “also recorded” stand apart in the source; their conditions may differ.

Key:
[1] = system: IL1β mRNA in the hippocampus; assay: IL1β expression in hippocampus in vivo after LPS (quantitative PCR); settings: mice; LPS 2 mg/kg s.c.; 10 mg/kg i.p.; six hours post injection; FIG. 3
Experimental: At six hours post injection, levels of IL1β in the hippocampus are measured via quantitative PCR of IL1β mRNA. IL1β is considered a marker of inflammation. Data are presented in FIG. 3 (***p<0.01 vs LPS alone, ANOVA with Newman-Keuls post-hoc test).

C57Bl/6 mice = assay: Chronic unpredictable stress (CUS) model, inflammatory markers and depression-like behaviors; format: in vivo, mouse; settings: 10 mg/kg i.p. daily
Text: This experiment compares the impact of chronic stress on the brain cytokine/chemokine profile in wild type mice vs PDE1B conditional knockout mice.
PDE1B conditional knockout mice are described in Siuciak J A, et al. “Behavioral and neurochemical characterization of mice deficient in the phosphodiesterase-1B (PDE1B) enzyme.” Neuropharmacology. 2007 July; 53(1):113-24. Protocols for CUS and other models of chronic stress are described in Monteiro, et al., “An Efficient Chronic Unpredictable Stress Protocol to Induce Stress-Related Responses in C57BL/6 Mice,” Front Psychiatry. 2015; 6: 6 and in Mann et al., “Chronic social defeat, but not restrain stress, alters bladder function in mice” Physiol. Behav. 2015; Oct. 15; 150: 83-92.
Generally, wild type (control) mice and PDE1B conditional knockout mice, as appropriate, are exposed to the chronic stress using restraint stress in shallow water model (RSSW) as described by Mann et al (2015), above. […] Control mice for these experiments are also maintained in single housing cages. In accordance the stress protocol, the mice are monitored for the depression-like behavior profile. Mice are then sacrificed and tissue samples are collected. […] Brain tissue and serum is analyzed for a panel of markers, including pro-inflammatory and anti-inflammatory cytokines and chemokines.
C57Bl/6 mice are subjected to the CUS protocol (14d, as described) or sham treatment, evaluated for depression-like behaviors at a specified time points, and sacrificed for collection of blood (serum preparation) and brain collection. Serum is analyzed for corticosterone (CORT) levels and other inflammatory markers. The brain is analyzed for a panel of inflammatory markers by qPCR (mRNA) and MSD (protein).
Mice are evaluated for depression-like behaviors at a specified time point to test the impact of the CUS protocol and of the PDE1 inhibitor treatment on the depression-like phenotype. […] Serum is analyzed for CORT levels and other inflammatory markers. Brain samples are analyzed for a panel for a panel of inflammatory markers by qPCR (mRNA) and MSD (protein). […]

## CN1C(=O)c2c(nn(Cc3ccc(-c4cccc(F)n4)cc3)c2Nc2ccccc2)N2C1=N[C@@H]1CCC[C@@H]12 [Compound 214]
[1]
  LPS-induced increase in expression of IL1β in the hippocampus (mRNA): suppresses; also recorded: significantly blunts
C57Bl/6 mice; PDE1B KO mice, CUS
  effect on tissue and serum markers and behaviors in PDE1B KO mice: no significant effect
C57Bl/6 mice; normal C57Bl/6 mice, CUS 14d
  CUS-induced CNS and serum markers (proinflammatory): significantly suppresses
  expression of depression-like behaviors: significantly suppresses
